Measurements published in patent US9266954B2, “Methods for modulating D1-D2 dopamine receptor coupling and function” (Centre for Addiction and Mental Health, priority 2008, dated 2016).
Ends that are not written are not given here.

Experiments:
D1 receptors = molecular target: T1, D1 receptors (Rattus norvegicus, UniProt P18901); experiment: GST-fusion protein affinity pull-down of D1 receptor from solubilized rat striatum; format: binding; conditions: FIG. 1C-1E
T1 construct: D1 receptor was specifically pulled down by GST-D2IL3-L in detergent extracts of rat striatum; from tissue; host or cells: rat striatum, detergent-solubilized
T1 sequence (P18901 whole entry, the tested form may be a part): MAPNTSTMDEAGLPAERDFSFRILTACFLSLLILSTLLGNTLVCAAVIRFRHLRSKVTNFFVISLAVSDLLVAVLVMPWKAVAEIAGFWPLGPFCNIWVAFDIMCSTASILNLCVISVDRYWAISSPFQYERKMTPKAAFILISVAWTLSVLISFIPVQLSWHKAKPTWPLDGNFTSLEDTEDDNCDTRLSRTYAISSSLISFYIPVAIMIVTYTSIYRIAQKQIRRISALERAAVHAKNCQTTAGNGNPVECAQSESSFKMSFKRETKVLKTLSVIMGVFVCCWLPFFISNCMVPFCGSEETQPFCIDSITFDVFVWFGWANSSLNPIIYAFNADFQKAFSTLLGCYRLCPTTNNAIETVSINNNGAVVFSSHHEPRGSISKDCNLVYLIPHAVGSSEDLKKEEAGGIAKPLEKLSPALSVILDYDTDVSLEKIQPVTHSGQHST
From the text: (§1) To confirm previous reports of a D1-D2 receptor complex we used rat striata in co-immunoprecipitation (co-IP) experiments. […] In an attempt to define the structural basis for the observed D1-D2 coupling, we carried out affinity purification using GST (glutathione-S-transferase)-fusion proteins encoding the D1CT and the third intracellular loop (D1IL3), since both D1CT: A332-T446 and D1IL3: R219-K272 contain putative consensus sequences for receptor phosphorylation, desensitization and potential binding sites for various proteins important for signalling (e.g. G proteins, NMDA receptor NR1, NR2A subunits)^81-82. […] To locate the interacting site on D2R, GST-fusion proteins encoding IL3 from both the D2 short (D2S) and D2 Long (D2L) (GST-D2IL3-L: K211-Q373, GST-D2IL3-S:K211-[…]) were used in affinity purification assays. […] Since the D2L and D2S are differentiated by the additional 29 amino-acid within the third intracellular loop, the fact that only D2L but not D2S interacts with D1R made us suspect that this specific 29 amino-acid may contain the D1-D2 interacting site.

D1 tail = molecular target: T2, D1 tail (Homo sapiens, UniProt P21728); experiment: in vitro binding assay with S^35-D1 tail probe; conditions: FIG. 1F
T2 construct: D1CT A332-T446
T2 sequence (P21728 332-446): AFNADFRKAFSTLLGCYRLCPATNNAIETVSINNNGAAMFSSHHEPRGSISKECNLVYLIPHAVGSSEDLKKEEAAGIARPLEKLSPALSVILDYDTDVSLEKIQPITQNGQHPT
From the text: as §1

D1-D2 coupling = conditions: rat, in vivo, sc, 10 mg/kg/day
D1R = experiment: Western blot of D1R levels in striata of chronically treated rats; format: in vivo; conditions: rat striata; 10 mg/kg/day subcutaneously for 14 days
D2R = experiment: Western blot of D2R levels in striata of chronically treated rats; format: in vivo; conditions: rat striata; 10 mg/kg/day subcutaneously for 14 days
[1] = molecular target: T3, HEK-293T cells co-expressing D1 and D2 receptors (Homo sapiens, UniProt P14416+P21728); experiment: Fluo-4AM fluorescence measurement of intracellular Ca^2+ in HEK-293T cells co-expressing D1 and D2 receptors; format: cell-based; conditions: pretreatment 10 μM
T3 construct: expressed in transfected cells; host or cells: HEK-293T
T3 sequence (P21728 whole entry): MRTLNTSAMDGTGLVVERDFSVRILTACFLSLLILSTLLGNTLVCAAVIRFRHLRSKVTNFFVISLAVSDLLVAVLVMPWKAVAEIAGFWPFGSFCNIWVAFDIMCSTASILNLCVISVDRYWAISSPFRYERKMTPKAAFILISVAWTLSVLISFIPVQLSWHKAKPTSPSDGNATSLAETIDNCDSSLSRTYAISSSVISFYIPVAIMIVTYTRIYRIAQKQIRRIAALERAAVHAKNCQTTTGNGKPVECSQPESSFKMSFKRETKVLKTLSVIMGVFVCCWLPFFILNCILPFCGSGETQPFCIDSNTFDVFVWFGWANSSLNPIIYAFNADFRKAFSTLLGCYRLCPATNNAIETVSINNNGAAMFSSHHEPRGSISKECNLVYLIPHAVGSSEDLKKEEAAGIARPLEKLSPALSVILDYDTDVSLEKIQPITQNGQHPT
T3 sequence (P14416 whole entry): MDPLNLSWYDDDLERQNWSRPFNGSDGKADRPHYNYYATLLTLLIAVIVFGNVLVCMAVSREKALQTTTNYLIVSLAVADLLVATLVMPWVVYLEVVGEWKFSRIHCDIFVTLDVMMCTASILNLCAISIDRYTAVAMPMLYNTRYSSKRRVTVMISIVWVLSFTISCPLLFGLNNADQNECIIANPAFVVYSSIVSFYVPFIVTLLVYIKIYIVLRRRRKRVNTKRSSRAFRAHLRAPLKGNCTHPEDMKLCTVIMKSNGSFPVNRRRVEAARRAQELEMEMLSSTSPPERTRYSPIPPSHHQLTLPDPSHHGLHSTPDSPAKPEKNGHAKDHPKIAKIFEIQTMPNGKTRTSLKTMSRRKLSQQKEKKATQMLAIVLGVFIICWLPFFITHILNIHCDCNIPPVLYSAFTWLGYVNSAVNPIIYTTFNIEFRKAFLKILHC
From the text: Fluorescence values were monitored using a PerkinElmer multiwell plated fluorometer, collected at 3-s intervals for 150 s. (A.F.U.: arbitrary fluorescence units).
To investigate the functional implication of the D1-D2 coupling, we examined the ability of this complex to promote Gq/11 signaling as indexed by changes in intracellular Ca^2+ levels^83-85.

D2 receptors = conditions: rat, in vivo
D1-D2 interaction = molecular target: T4, D1-D2 interaction (Rattus norvegicus, UniProt P18901); experiment: competitive co-immunoprecipitation of D1 receptor with D2 receptor in rat striatum; format: binding; conditions: preincubation, FIG. 1G
T4 construct: from tissue; host or cells: rat striatum
T4 sequence (P18901 whole entry): as the sequence (P18901 whole entry, the tested form may be a part) above
From the text: The ability of D1 receptor to co-immunoprecipitate with D2 receptor is inhibited by the addition of GST-D2IL3-29-2 in a concentration dependent manner;
as §1

GST-D2LIL3-29-1: GST-fusion protein encoding D2LIL3-29-1: G242-V255 (GNCTHPEDMKLCTV; cysteine pairing not given here; also: GST fusion protein)
pull-down of D1 receptors (D1 receptors): not
binding of S^35-D1 tail probe (D1 tail): not

CN(C)CCCN1c2ccccc2CCc2ccccc21 [imipramine]
D1-D2 coupling (co-immunoprecipitation) (D1-D2 coupling): decrease in D1-D2 coupling
D1R levels (Western blot) vs control rats (D1R): no significant change
D2R levels (Western blot) vs control rats (D2R): no significant change

CCN1CCC[C@H]1CNC(=O)c1c(O)c(Cl)cc(Cl)c1OC [raclopride]
block of the Ca^2+ increase induced by co-activation with 10 μM SKF81297 and 10 μM quinpirole [1]: blocked

O=C(CCCN1CCC(O)(c2ccc(Cl)cc2)CC1)c1ccc(F)cc1 [haloperidol]
direct immunoprecipitated D2 receptors (D2 receptors): remain unchanged

COc1ccc2c(c1)CC[C@@H]1[C@@H]2CC[C@]2(C)[C@@H](NCCCCCCN3C(=O)C=CC3=O)CC[C@@H]12 [U73122]
block of the Ca^2+ increase induced by co-activation with 10 μM SKF81297 and 10 μM quinpirole [1]: inhibited the increase in Ca^2+ levels

GST-D2LIL3-29-2: GST-fusion protein encoding D2LIL3-29-2: I256-V270 (IMKSNGSFPVNRRRV; also: GST fusion protein)
pull-down of D1 receptors (D1 receptors): can successfully pull-down D1R
binding of S^35-D1 tail probe (D1 tail): specifically bound
inhibition of D1-D2 interaction as indexed by co-immunoprecipitation (D1-D2 interaction): inhibits the D1-D2 interaction as indexed by the co-immunoprecipitation in a concentration dependent manner
